Values joined by “and” are separate entries in the source; they are usually repeats but may differ in a detail not shown here. Equal entries are not always repeated. Inconclusive results and toxic doses are left out. Cut-off read from the data, not from the text of the source: active = T/C of 150% or more; inactive = T/C below 125%.
System: L1210 leukemia ip in BDF1 mice, survival T/C
Assay: NCI In Vivo Anticancer Drug Screen. Data for tumor model L1210 Leukemia (intraperitoneal) in B6D2F1 (BDF1) mice
Details: endpoint: mean survival time, higher = longer survival
In short: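 Ratio derived from survival: compound-dosed mice over vehicle-dosed mice, all bearing a transplantable tumor.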

[1] = dose: 100.0 mg/kg/injection, schedule: Q01DX001 (ip), vehicle: saline with Tween-80
[2] = dose: 200.0 mg/kg/injection, schedule: Q01DX001 (ip), vehicle: saline with Tween-80
[3] = dose: 400.0 mg/kg/injection, schedule: Q01DX001 (ip), vehicle: saline with Tween-80
[4] = dose: 100.0 mg/kg/injection, schedule: Q01DX009 (ip), vehicle: saline with Tween-80
[5] = dose: 200.0 mg/kg/injection, schedule: Q01DX009 (ip), vehicle: saline with Tween-80
[6] = dose: 100.0 mg/kg/injection, schedule: Q01DX001 (ip), vehicle: saline
[7] = dose: 100.0 mg/kg/injection, schedule: Q04DX003 (ip), vehicle: Klucel (hydroxypropylcellulose) (HPC)
[8] = dose: 200.0 mg/kg/injection, schedule: Q01DX001 (ip), vehicle: saline
[9] = dose: 200.0 mg/kg/injection, schedule: Q04DX003 (ip), vehicle: Klucel (hydroxypropylcellulose) (HPC)
[10] = dose: 400.0 mg/kg/injection, schedule: Q01DX001 (ip), vehicle: saline
[11] = dose: 400.0 mg/kg/injection, schedule: Q04DX003 (ip), vehicle: Klucel (hydroxypropylcellulose) (HPC)
[12] = dose: 75.0 mg/kg/injection, schedule: Q01DX001 (ip), vehicle: carboxymethylcellulose (CMC)
[13] = dose: 50.0 mg/kg/injection, schedule: Q01DX009 (ip), vehicle: Klucel (hydroxypropylcellulose) (HPC)
[14] = dose: 100.0 mg/kg/injection, schedule: Q01DX009 (ip), vehicle: Klucel (hydroxypropylcellulose) (HPC)
[15] = dose: 100.0 mg/kg/injection, schedule: Q04DX002 (ip), vehicle: Klucel (hydroxypropylcellulose) (HPC)
[16] = dose: 200.0 mg/kg/injection, schedule: Q01DX009 (ip), vehicle: Klucel (hydroxypropylcellulose) (HPC)
[17] = dose: 200.0 mg/kg/injection, schedule: Q04DX002 (ip), vehicle: Klucel (hydroxypropylcellulose) (HPC)
[18] = dose: 400.0 mg/kg/injection, schedule: Q04DX002 (ip), vehicle: Klucel (hydroxypropylcellulose) (HPC)
[19] = dose: 100.0 mg/kg/injection, schedule: Q04DX002 (ip), vehicle: saline with Tween-80
[20] = dose: 200.0 mg/kg/injection, schedule: Q04DX002 (ip), vehicle: saline with Tween-80
[21] = dose: 400.0 mg/kg/injection, schedule: Q04DX002 (ip), vehicle: saline with Tween-80
[22] = dose: 400.0 mg/kg/injection, schedule: Q01DX009 (ip), vehicle: Klucel (hydroxypropylcellulose) (HPC)
[23] = dose: 100.0 mg/kg/injection, schedule: Q04DX003 (ip), vehicle: saline with Tween-80
[24] = dose: 200.0 mg/kg/injection, schedule: Q04DX003 (ip), vehicle: saline with Tween-80
[25] = dose: 400.0 mg/kg/injection, schedule: Q01DX009 (ip), vehicle: saline with Tween-80
[26] = dose: 400.0 mg/kg/injection, schedule: Q04DX003 (ip), vehicle: saline with Tween-80

Measured: T/C

COC1CCC2=C(C1)C(=O)CC1c3ccccc3CCN21 (centres undefined) (tested in a mixture with another compound)
inactive: dose: 6.25 mg/kg/injection, schedule: Q04DX003 (ip), vehicle: saline with Tween-80 97 % of control | dose: 12.5 mg/kg/injection, schedule: Q04DX003 (ip), vehicle: saline with Tween-80 107 % of control | dose: 25.0 mg/kg/injection, schedule: Q04DX003 (ip), vehicle: saline with Tween-80 102 % of control

COc1ccc(SC(=O)N(C)C)cc1
inactive: [1] 98 % of control | [2] 94 % of control | [3] 98 % of control

CCCCCC1SC1CC1SC1CCCCCCCC(=O)NCCCOCCOCCOCC (centres undefined)
inactive: [4] 121 % of control | [5] 104 % of control

CC1(C)CCC(C)(C)c2cc(O)ccc21
inactive: [6] 94 % of control | [7] 92 % of control | [8] 96 % of control | [9] 92 % of control | [10] 89 % of control | [11] 87 % of control

O=C(CCl)c1ccc[nH]1
inactive: dose: 50.0 mg/kg/injection, schedule: Q01DX015 (ip), vehicle: carboxymethylcellulose (CMC) 93 % of control | [12] 93 % of control | dose: 100.0 mg/kg/injection, schedule: Q01DX015 (ip), vehicle: carboxymethylcellulose (CMC) 93 % of control

C/C=C(\C)C(C#N)CCCC (centres undefined)
inactive: [12] 95 % of control | dose: 150.0 mg/kg/injection, schedule: Q01DX001 (ip), vehicle: carboxymethylcellulose (CMC) 106 % of control | dose: 300.0 mg/kg/injection, schedule: Q01DX001 (ip), vehicle: carboxymethylcellulose (CMC) 95 % of control

Cn1cnc2cnc([N+](C)(C)C)nc21
inactive: dose: 100.0 mg/kg/injection, schedule: Q04DX003 (ip), vehicle: saline 103 % of control | dose: 200.0 mg/kg/injection, schedule: Q04DX003 (ip), vehicle: saline 114 % of control

CCC(C)C(N)C(=O)OCc1ccccc1 (centres undefined)
inactive: [13] 88 % of control | [14] 90 % of control | [15] 95 % of control | [16] 92 % of control | [17] 92 % of control | [18] 89 % of control

Nc1ccc2cc(S(=O)(=O)O)cc(S(=O)(=O)O)c2c1 (tested in a mixture with another compound)
inactive: dose: 80.0 mg/kg/injection, schedule: Q01DX Z (ip), vehicle: saline 97 % of control | dose: 170.0 mg/kg/injection, schedule: Q01DX Z (ip), vehicle: saline 96 % of control

CCCCCCCCC[n+]1cccc(C(=O)c2ccccc2)c1
inactive: dose: 9.38 mg/kg/injection, schedule: Q01DX001 (ip), vehicle: saline 98 % of control | dose: 18.75 mg/kg/injection, schedule: Q01DX001 (ip), vehicle: saline 100 % of control | dose: 37.5 mg/kg/injection, schedule: Q01DX001 (ip), vehicle: saline 105 % of control

COc1cc2c(cc1O)CCCCC2=O
inactive: dose: 50.0 mg/kg/injection, schedule: Q01DX009 (ip), vehicle: saline 92 % of control | dose: 100.0 mg/kg/injection, schedule: Q01DX009 (ip), vehicle: saline 104 % of control | [7] 97 % of control | dose: 200.0 mg/kg/injection, schedule: Q01DX009 (ip), vehicle: saline 119 % of control | [9] 102 % of control | [11] 94 % of control

CC(C)C(C(=O)O)N(C)C(=O)c1cnc2ccccc2n1 (centres undefined)
inactive: [6] 105 % of control | [8] 109 % of control | [10] 103 % of control

CN(C)N=Nc1ccc(C(=O)N/N=C/c2ccc([N+](=O)[O-])cc2)cc1
inactive: [19] 100 % of control | [20] 94 % of control | [21] 99 % of control

O=[N+]([O-])c1nc2ccccc2[nH]1
inactive: dose: 100.0 mg/kg/injection, schedule: Q01DX001 (ip), vehicle: other 98 % of control

O=C1/C(=C/c2c(Cl)cccc2Cl)CCC/C1=C\c1c(Cl)cccc1Cl
inactive: [14] 104 % of control | [7] 111 % of control | [16] 108 % of control | [9] 101 % of control | [22] 90 % of control | [11] 101 % of control

CC(=O)OC(=O)C1C2CC3C(C2)C31 (centres undefined)
inactive: dose: 6.25 mg/kg/injection, schedule: Q01DX009 (ip), vehicle: other 101 % of control | dose: 12.5 mg/kg/injection, schedule: Q01DX009 (ip), vehicle: other 97 % of control | dose: 25.0 mg/kg/injection, schedule: Q01DX009 (ip), vehicle: other 93 % of control

CCOC(=O)c1ccccc1COc1ccc([N+](=O)[O-])cc1Cl
inactive: [14] 93 % of control | [16] 93 % of control | [22] 88 % of control

CC(Oc1cc(Cl)c(Cl)cc1Cl)C(=O)OCCCc1ccccn1 (centres undefined)
inactive: [13] 106 % of control | [14] 100 % of control and 111 % of control | [15] 103 % of control | [16] 114 % of control | [17] 107 % of control | [18] 90 % of control

CSc1nncc(=O)[nH]1.[Hg]
inactive: dose: 5.0 mg/kg/injection, schedule: Q01DX001 (ip), vehicle: carboxymethylcellulose (CMC) 91 % of control | dose: 10.0 mg/kg/injection, schedule: Q01DX001 (ip), vehicle: carboxymethylcellulose (CMC) 102 % of control

O=C(/C=C/c1cccc2ccccc12)c1ccccc1[N+](=O)[O-]
inactive: [1] 96 % of control | [4] 96 % of control and 87 % of control | [19] 88 % of control | [23] 96 % of control | [2] 96 % of control | [5] 89 % of control and 90 % of control | [20] 90 % of control | [24] 90 % of control | [3] 91 % of control | [25] 86 % of control and 90 % of control | [21] 88 % of control and 90 % of control | [26] 91 % of control

CCOC(CN=CC1CCC=CO1)OCC (centres undefined)
inactive: [23] 91 % of control | [24] 96 % of control | [26] 95 % of control

CC(=O)OC[C@]12CCC(C)=CC1O[C@@H]1C(OC(C)=O)[C@@H](O)[C@@]2(C)[C@]12CO2 (some centres undefined)
inactive: dose: 0.4 mg/kg/injection, schedule: Q01DX009 (ip), vehicle: other 97 % of control | dose: 0.8 mg/kg/injection, schedule: Q01DX009 (ip), vehicle: other 114 % of control | dose: 1.6 mg/kg/injection, schedule: Q01DX009 (ip), vehicle: other 114 % of control | dose: 3.2 mg/kg/injection, schedule: Q01DX009 (ip), vehicle: other 116 % of control

O=S1Cc2cc3ccccc3cc2C1
inactive: [1] 102 % of control | [2] 103 % of control | [3] 108 % of control

O=C(O)CCCCCCCCCCN1C(=O)c2cccc([N+](=O)[O-])c2C1=O
inactive: dose: 87.5 mg/kg/injection, schedule: Q04DX003 (ip), vehicle: carboxymethylcellulose (CMC) 101 % of control | dose: 175.0 mg/kg/injection, schedule: Q04DX003 (ip), vehicle: carboxymethylcellulose (CMC) 97 % of control | dose: 350.0 mg/kg/injection, schedule: Q04DX003 (ip), vehicle: carboxymethylcellulose (CMC) 87 % of control

O=C(OCc1ccccc1)c1cc(OCc2ccccc2)ccc1OCc1ccccc1
inactive: [14] 89 % of control | [7] 93 % of control | [16] 101 % of control | [9] 95 % of control | [22] 107 % of control | [11] 98 % of control

CCOC(CNC(=S)Nc1ccccc1)OCC
inactive: dose: 100.0 mg/kg/injection, schedule: Q01DX001 (ip), vehicle: carboxymethylcellulose (CMC) 89 % of control | dose: 200.0 mg/kg/injection, schedule: Q01DX001 (ip), vehicle: carboxymethylcellulose (CMC) 95 % of control | dose: 400.0 mg/kg/injection, schedule: Q01DX001 (ip), vehicle: carboxymethylcellulose (CMC) 95 % of control

CCO/C=C(\C#N)C(=O)O
inactive: [4] 95 % of control | [23] 98 % of control | [5] 98 % of control | [24] 104 % of control | [25] 102 % of control | [26] 100 % of control

NC(=O)C1C2C=CC(CC2)C1C(N)=O (centres undefined)
inactive: [23] 91 % of control | [24] 96 % of control | [26] 91 % of control
